According to patent US20240025880A1 (CHIESI FARMACEUTICI S.P.A., priority 2020, published 2024):
Counter-ions that a name gives are not always drawn. Like-named read-outs stand apart in the source and are kept apart here.

Experiments:
h P2X3 = biological target: T1, h P2X3 (Homo sapiens, UniProt P56373); assay: In vitro electrophysiology assay for P2X3 (automated whole-cell patch clamp, α,β-MeATP agonist); format: cell-based; settings: 800 nM α,β-MeATP, peak current, read-out: h P2X3 (pIC50 range of activity) (converted)
T1 sequence (P56373 1-397): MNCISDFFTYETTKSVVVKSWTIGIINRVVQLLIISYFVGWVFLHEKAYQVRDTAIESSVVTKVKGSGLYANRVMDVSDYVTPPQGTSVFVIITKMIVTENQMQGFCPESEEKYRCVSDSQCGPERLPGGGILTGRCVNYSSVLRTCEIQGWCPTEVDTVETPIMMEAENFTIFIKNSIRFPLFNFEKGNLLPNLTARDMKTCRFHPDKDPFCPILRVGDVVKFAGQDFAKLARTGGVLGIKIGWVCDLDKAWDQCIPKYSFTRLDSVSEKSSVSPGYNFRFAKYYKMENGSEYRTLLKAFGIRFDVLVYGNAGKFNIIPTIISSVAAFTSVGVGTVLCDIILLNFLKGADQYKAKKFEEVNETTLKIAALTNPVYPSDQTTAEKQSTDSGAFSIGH
Method: In Vitro Electrophysiology Assay for P2X3
(§1) Cells expressing P2X3 receptors were grown according to standard practice and maintained at 37° C. in a 5% humidified CO2 atmosphere. The cells were seeded into T175 flask 2 days prior to the day of the assay and dissociated from the flasks using TrypLE when grown to confluence of 80-90%. The dissociated cells were resuspended in serum free media at a cell density of 3×10^6 cells/ml and loaded onto the Sophion Qube automated patch-clamp system. The extracellular assay buffer contained 145 mM NaCl, 4 mM KCl, 2 mM CaCl2, 1 mM MgCl2, 10 mM HEPES, and 10 mM glucose at pH 7.4. The intracellular assay solution contained 140 mM CsF, 10 mM NaCl, 10 mM EGTA, 10 mM HEPES at pH 7.2. Agonist stock solutions were prepared in H2O and diluted in bath solution prior to use. All antagonists were prepared as 10 mM stock solutions in DMSO and diluted in bath solution prior to use. All experiments were performed under the whole-cell patch clamp configuration at room temperature with 384 individual cells being voltage clamped at −60 mV simultaneously on the Sophion Qube instrument. Two baseline responses were established with the application of α,β-MeATP (800 nM), with the subsequent agonist applications being washed out using extracellular assay buffer containing 0.5 U/ml apyrase. Following the second agonist application, antagonist was incubated in the absence of α,β-MeATP for 10 minutes. After antagonist preincubation, 800 nM α,β-MeATP and antagonist were co-administered to determine the inhibitory effect of the antagonist. One concentration of an antagonist was assessed against a single cell, with different concentrations of the antagonist applied to other cells on the 384 recording substrate. The control P2X3 current amplitude was taken from the peak current amplitude from the second agonist response prior to preincubation with antagonist. The peak P2X3 current amplitude in the presence of antagonist was used to calculate the inhibitory effect at each concentration of the antagonist according to the following equation:
Percentage inhibition of P2X3=(P2X3 control peak amplitude−P2X3 antagonist peak amplitude)/P2X3 control peak amplitude)*100
Concentration-response curves were constructed from ten different concentrations with each concentration of antagonist tested on at least two individual cells. The concentration of the antagonist to inhibit P2X3 current by 50% (IC50) was determined by fitting the data with the following equation:
Y=a+[(b−a)/(1+10^((log c−x)d)]
Where ‘a’ is minimum response, ‘b’ is maximum response, ‘c’ is IC50 and ‘d’ is Hill slope.

h P2X2/3 = biological target: T2, h P2X2/3 (Homo sapiens, UniProt P56373+Q9UBL9); assay: In vitro electrophysiology assay for P2X2/3 (same protocol, 10 μM ATP agonist); format: cell-based; settings: Table 3, mean current seven seconds after agonist, read-out: h P2X2/3 (pIC50 range of activity) (converted)
T2 construct: host or cells: cells not described; same protocol as the P2X3 assay
T2 sequence (P56373 1-397): T1 sequence (P56373 1-397)
T2 sequence (Q9UBL9 1-471): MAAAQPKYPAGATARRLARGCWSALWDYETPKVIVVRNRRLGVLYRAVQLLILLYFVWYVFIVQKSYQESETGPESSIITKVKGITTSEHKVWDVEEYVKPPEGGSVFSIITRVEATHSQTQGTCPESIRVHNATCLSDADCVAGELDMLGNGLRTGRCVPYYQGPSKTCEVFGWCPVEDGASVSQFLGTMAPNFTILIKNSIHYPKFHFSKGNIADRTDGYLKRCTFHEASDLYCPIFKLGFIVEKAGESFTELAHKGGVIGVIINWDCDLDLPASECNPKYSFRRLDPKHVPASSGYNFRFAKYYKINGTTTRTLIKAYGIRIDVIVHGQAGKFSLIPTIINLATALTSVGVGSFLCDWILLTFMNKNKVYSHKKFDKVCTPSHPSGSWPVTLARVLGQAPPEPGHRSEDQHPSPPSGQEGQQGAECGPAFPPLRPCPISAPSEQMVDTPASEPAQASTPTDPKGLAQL
Method: as §1, with “equation: […]” for “equation:”
In vitro Electrophysiology Assay for P2X2/3
Representative compound of the present invention have been also tested for P2X2/3 receptor.
The same assay protocol was used for the P2X2/3 assay as the P2X3 assay with two modifications: 1) 10 μM ATP was used as the agonist; and 2) the mean current amplitude was measured seven seconds after the application of agonist.

SMILES	IC50 (h P2X3; Table 2)	IC50 (h P2X3; Table 3)	IC50 (h P2X2/3)
Cc1nnc(C(C)Nc2ncnc3c(OCC(F)F)cc(-c4ccc(F)cn4)cc23)s1 (single isomer, unassigned; enantiomer 1) [Example 6, Single enantiomer 1 of 8-(2,2-difluoroethoxy)-6-(5-fluoro-2-pyridyl)-N-[1-(5-methyl-1,3,4-thiadiazol-2-yl)ethyl]quinazolin-4-amine]	< 316 nM	< 316 nM	3160 to 31600 nM
Cc1nc([C@@H](C)Nc2ncnc3c(S(=O)(=O)N(C)C)cc(-c4ccc(F)cc4)cc23)no1 (stereo in doubt) [Example 15, 6-(4-fluorophenyl)-N,N-dimethyl-4-((1-(5-methyl-1,2,4-oxadiazol-3-yl)ethyl)amino)quinazoline-8-sulfonamide]	< 316 nM	< 316 nM	316 to 3160 nM
Cc1ccc(CNc2ncnc3c(OCC(F)F)cc(-c4ccc(F)cc4)cc23)nn1 [Example 1, 8-(2,2-difluoroethoxy)-6-(4-fluorophenyl)-N-((6-methylpyridazin-3-yl)methyl)quinazolin-4-amine]	< 316 nM	< 316 nM	3160 to 31600 nM
C[C@@H](Nc1ncnc2c(OCC(F)F)cc(-c3ccc(F)cc3)cc12)c1cnc(C(F)(F)F)nc1 [Example 2, (R)-8-(2,2-difluoroethoxy)-6-(4-fluorophenyl)-N-(1-(2-(trifluoromethyl)pyrimidin-5-yl)ethyl)quinazolin-4-amine]	< 316 nM	< 316 nM	316 to 3160 nM
Cc1cnc(-c2cc(OCC(F)F)c3ncnc(NCc4ccc(C)nn4)c3c2)nc1 [Example 9, 8-(2,2-difluoroethoxy)-N-[(6-methylpyridazin-3-yl)methyl]-6-(5-methylpyrimidin-2-yl)quinazolin-4-amine]	< 316 nM	< 316 nM	316 to 3160 nM
Cc1ccc([C@@H](C)Nc2ncnc3c(S(=O)(=O)N4CCC(F)(F)C4)cc(-c4ccc(F)cc4)cc23)nn1 [Example 16]	< 316 nM	< 316 nM	316 to 3160 nM
Cc1nc([C@@H](C)Nc2ncnc3c(S(=O)(=O)N4CCC(F)(F)C4)cc(-c4ccc(F)cc4)cc23)no1 [Example 17, (R)-8-((3,3-difluoropyrrolidin-1-yl)sulfonyl)-6-(4-fluorophenyl)-N-(1-(5-methyl-1,2,4-oxadiazol-3-yl)ethyl)quinazolin-4-amine]	< 316 nM	< 316 nM	316 to 3160 nM
CNS(=O)(=O)c1cc(-c2ccc(F)cc2)cc2c(N[C@H](C)c3ccc(C)nn3)ncnc12 [Example 21, (R)-6-(4-fluorophenyl)-N-methyl-4-((1-(6-methylpyridazin-3-yl)ethyl)amino)quinazoline-8-sulfonamide]	< 316 nM	< 316 nM	3160 to 31600 nM
CNS(=O)(=O)c1cc(-c2ccc(F)cc2)cc2c(N[C@H](C)c3noc(C)n3)ncnc12 [Example 22, (R)-6-(4-fluorophenyl)-N-methyl-4-((1-(5-methyl-1,2,4-oxadiazol-3-yl)ethyl)amino)quinazoline-8-sulfonamide]	< 316 nM	< 316 nM	3160 to 31600 nM
Cc1ccc([C@@H](C)Nc2ncnc3c([S+](C)[O-])cc(-c4ccc(F)cc4)cc23)nn1 (stereo partly drawn) [Example 27, 6-(4-fluorophenyl)-N-((R)-1-(6-methylpyridazin-3-yl)ethyl)-8-(methylsulfinyl)quinazolin-4-amine]	< 316 nM	< 316 nM	316 to 3160 nM
C[C@@H](Nc1ncnc2c(OC3CCNC3=O)cc(-c3ccc(F)cc3)cc12)c1cnc(C(F)(F)F)nc1 (stereo partly drawn) [Example 34, 3-((6-(4-fluorophenyl)-4-(((R)-1-(2-(trifluoromethyl)pyrimidin-5-yl)ethyl)amino)quinazolin-8-yl)oxy)pyrrolidin-2-one]	< 316 nM	< 316 nM	316 to 3160 nM
COC(=O)C1(NC(=O)COc2cc(-c3ccc(F)cc3)cc3c(NCc4ccc(C)nn4)ncnc23)CC1 [Example 42, Methyl 1-(2-((6-(4-fluorophenyl)-4-(((6-methylpyridazin-3-yl)methyl)amino)quinazolin-8-yl)oxy)acetamido)cyclopropane-1-carboxylate]	316 to 3160 nM	316 to 3160 nM	3160 to 31600 nM
COC(=O)C1(NC(=O)COc2cc(-c3ccc(F)cc3)cc3c(N[C@H](C)c4cnc(C(F)(F)F)nc4)ncnc23)CC1 [Example 43, Methyl (R)-1-(2-((6-(4-fluorophenyl)-4-((1-(2-(trifluoromethyl)pyrimidin-5-yl)ethyl)amino)quinazolin-8-yl)oxy)acetamido) cyclopropane-1-carboxylate]	316 to 3160 nM	316 to 3160 nM	3160 to 31600 nM
C[C@@H](Nc1ncnc2c(OCC3(C(=O)O)CCNCC3)cc(-c3ccc(F)cc3)cc12)c1cnc(C(F)(F)F)nc1 [Example 47, (R)-4-(((6-(4-fluorophenyl)-4-((1-(2-(trifluoromethyl)pyrimidin-5-yl)ethyl)amino)quinazolin-8-yl)oxy)methyl)piperidine-4-carboxylic acid hydrochloride]	316 to 3160 nM	316 to 3160 nM	3160 to 31600 nM
Cc1ccc(CNc2ncnc3c(OCc4nnc(C5CC5)o4)cc(-c4ccc(F)cc4)cc23)nn1 [Example 62, 8-((5-cyclopropyl-1,3,4-oxadiazol-2-yl)methoxy)-6-(4-fluorophenyl)-N-((6-methylpyridazin-3-yl)methyl)quinazolin-4-amine]	< 316 nM	< 316 nM	316 to 3160 nM
